Measured values from patent publication US20240368104A1, “Novel Dialkoxynaphtho[2,3-C]Furan-1(3H)-One Derivatives and Pharmaceutical Composition For Preventing or Treating Respiratory Disease or SARS-COV-2 Infection Disease, Comprising Same” (priority 2021, published 2024).
pEC50, pIC50: −log10 of the molar value. Like-named read-outs stand apart in the source and are kept apart here.

Key:
SARS-COV-2 = assay: microbe, parasite or virus in culture; assay type: cell-based; parameters: SI (Selectivity Index, CC50/IC50): unit not given here; conditions: for SI (Selectivity Index, CC50/IC50): SARS-COV-2, values >50 assumed to be 50; for pIC50: read-out: SARS-COV-2 inhibition (IC50)
in vitro [1] = conditions: African green monkey
in vitro [2] = conditions: African green monkey; remark: listed apart in the source
[3] = tested on: SFTS virus (KADGH; NCCP43261); assay: microbe, parasite or virus in culture; assay type: cell-based, severe fever with thrombocytopenia syndrome virus; parameters: SI (Selectivity Index, CC50/IC50): unit not given here; conditions: for SI (Selectivity Index, CC50/IC50): SFTS virus; for IC50: Severe fever with thrombocytopenia syndrome virus, Vero, 24 h, read-out: SFTSV inhibition (IC50, μM)
Zika virus = assay: Inhibitory effect against Zika virus in Vero cells; assay type: cell-based
dengue virus = assay: Inhibitory effect against dengue virus in Vero E6 cells; assay type: cell-based
Experimental: On the next day, a compound having a concentration of 0.0625 micro M was prepared from a compound having a concentration of 3 micro M and treated to Vero E6 cells, and then the cells treated with the compound were immediately infected with dengue virus (0.01 MOI) and cultured at 37° C. for five days.

[4] = tested on: Balb/c mouse asthma model; assay: Balb/c mouse asthma model (ovalbumin), BALF IgE, IL-4, IL-5 and inflammatory cells; assay type: in vivo, Balb/c mice
Experimental: In detail, five-week-old Balb/c mice were purchased and acclimated for one week, after which the mice were sensitized systemically by intraperitoneal injection with 0.1% ovalbumin (OVA 1 mg/mL, Al(OH)3 20 mg/mL) at 100 μl/mouse on days 0 and 14 from a week after the acclimation. From a week (day 21) after a final systemic sensitization, the compound of Example 73 was orally administered everyday at 10 mg/kg to mice for ten days, and dexamethasone was intraperitoneally administered at 1 mg/kg as a positive control group. In one hour later, 0.2% ovalbumin solution was sprayed with a nebulizer (PARIBoy SX, GmbH, Germany) so as to be inhaled for one hour. In five hours after the final sensitization (day 30), an autopsy was performed, and 1 mL of phosphate buffer solution was flowed through a tracheotomy to collect a bronchoalveolar lavage fluid (BALF). The collected BALF was centrifuged at 3000 rpm for ten minutes, and the supernatant was used to measure bioactive materials (IL-4, IL-5), and pellets were used to measure the number of inflammatory cells. In addition, an IgE concentration in the isolated BALF was measured using IgE enzyme-linked immunosorbent assay (ELISA, Komabiotech), and IL-4 and IL-5 were measured using their respective enzyme-linked immunosorbent assay (ELISA, IL-4: Enzo #ADI-900-043, IL-5: R&D system #M5000).
The results are shown in Table 8 and FIG. 22, and each secretion inhibitory activity was calculated in the same manner as in [Equation 2] of Experimental Example 4.
In addition, the BALF pellets were re-dissolved by adding 0.5 mL of phosphate buffer solution, and then 0.1 mL for each thereof was added to a 96-well plate and centrifuged at 800 rpm for five minutes to attach cells to the bottom (three wells per sample). Then, the cells were stained with Diff Quik staining solution (Sysmex) and the number of cells was measured with […].
The results were shown in FIG. 21, the SPSS program was used for statistical processing, the Levene test was performed for equal-variance test, and the significance test was performed through one-way ANOVA.

[5] = tested on: IL-5 secretion in mouse splenocytes; assay: Inhibition of IL-5 secretion in mouse splenocytes (Concanavalin A, ELISA); assay type: cell-based, Balb/c mice; conditions: for inhibition at 1 µM: Splenocyte, read-out: IL-5 Secretion inhibitory ability (%); for IL-5 pg/ml: Concanavalin A 5 μg/mL, 48 hours
Experimental: (§1) The isolated splenocytes were diluted at a concentration of 5×10^6 cells/mL in RPMI medium containing 10% fetal bovine serum (FBS) and antibiotics (penicillin at 100 U/mL, streptomycin at 100 μg/mL), distributed at 500 μl/well in a 24 well plate, and cultured in a 37° C., 5% CO2 incubator for 48 hours. When splenocytes were distributed, an immune reaction was induced by treating with 5 μg/mL of Concanavalin A, and at this time, the splenocytes were treated with the materials selected in Experimental Example 3 at a concentration of 1 uM. First, in order to measure Th2 cytokines, the medium was collected from the 24-well plate, and only the supernatant was separated through centrifugation at 800×g for five minutes, after which 100 μl of the supernatant per well was used in an enzyme-linked immunosorbent assay (ELISA, Komabiotech) experiment so as to measure a degree of secretion of Th2 cytokines IL-4 and IL-5. A degree of inhibition against secretion of cytokines by the test material was calculated using [Equation 2] below, and the measurement results are shown in Table 7.

[6] = tested on: IL-4 secretion in RBL-2H3 cells; assay: Inhibition of IL-4 secretion in RBL-2H3 cell line (A23187 induced, ELISA); assay type: cell-based; conditions: Rattus norvegicus; for pIC50: RBL-2H3 cells, 1 uM A23187, read-out: IL-4 secretion inhibition IC50
Experimental: The RBL-2H3 cell line was purchased from the American Type Culture Collection (ATCC #CRL-2256). The cells were diluted at a concentration of 1×10^6 cells/ml in RPMI medium containing 15% fetal bovine serum (FBS) and antibiotics (penicillin at 100 U/mL, streptomycin at 100 μg/mL), distributed at 200 μl/well in a 48 well plate, and cultured in a 37° C., 5% CO2 incubator for 24 hours. In 24 hours later, the cells were pre-treated one hour before with a test drug and AS1517499 (STAT6 inhibitor) as a control drug, and treated with 1 uM of A23187 for six hours to induce an immune response, after which a group not containing the drug was used as a control. In order to measure a secretion level of cytokine IL-4, the medium was collected from the well plate and centrifuged at 125×g for five minutes to remove a residue, and 100 μl of the medium was used to measure an amount of IL-4 secreted from the cells by using IL-4 enzyme-linked immunosorbent assay (ELISA, Komabiotech). A degree of inhibition of cell secretion by the drug was calculated using [Equation 1] below.
First of all, 288 kinds of materials were treated at a single concentration of 10 uM so as to select 60 kinds of materials which inhibit secretion of IL-4 by 75% or more (FIG. 19).
After that, a repeated experiment and a two-concentration (10, 3 uM) test were performed using the selected 60 kinds of materials so as to select the final eight kinds, and the IC50 value was calculated and shown in Table 3.

[7] = tested on: IL-4 secretion in mouse splenocytes; assay: Inhibition of IL-4 secretion in mouse splenocytes (Concanavalin A, ELISA); assay type: cell-based, Balb/c mice; conditions: for inhibition at 1 µM: Splenocyte, read-out: IL-4 Secretion inhibitory ability (%); for IL-4 pg/ml: Concanavalin A 5 μg/mL, 48 hours
Experimental: as §1

[8] = Severe acute respiratory syndrome coronavirus 2, Vero, 24 h
[9] = Severe acute respiratory syndrome coronavirus 2, Vero cells, 24 hours infection
[10] = Example 73 10 mg/kg oral, dexamethasone 1 mg/kg intraperitoneal
[11] = Mean ± S.D., n = 5, Example 73 10 mg/kg oral, dexamethasone 1 mg/kg intraperitoneal, ten days
[12] = mouse splenocytes, compound 1 μM

SMILES	SI (Selectivity Index, CC50/IC50) (SARS-COV-2)	CC50 at 24 h (in vitro [1])	CC50 (in vitro [2])	SI (Selectivity Index, CC50/IC50) [3]	IC50 [3]	pIC50 (SARS-COV-2; [9])	inhibition at 1 µM [5, 12]	IL-5 pg/ml [5, 12]	pIC50 [6]	inhibition at 1 µM [7, 12]	IL-4 pg/ml [7, 12]	further results
COc1cc2cc3c(c(-c4ccc(N(C)c5cccc(C#N)c5)nc4)c2cc1OC)C(=O)OC3.Cl [Example 237, 3-((5-(6,7-dimethoxy-3-oxo-1,3-dihydronaphtho[2,3-c]furan-4-yl)pyridin-2-yl)(methyl)amino)benzonitrile]	61.98	1020 µM	> 50 µM	1277	0.794 µM	–	–	–	–	–	–	pIC50 (SARS-COV-2; [8]): 6.09
COc1cc2cc3c(c(-c4ccc5c(c4)OC(F)(F)O5)c2cc1OC)C(=O)OC3 [Example 221, 9-(2,2-difluorobenzo[d][1,3]dioxol-5-yl)-6,7-dimethoxynaphtho[2,3-c]furan-1(3H)-one]	275.32	457 µM	> 50 µM	11472	0.04 µM	6.74	–	–	–	–	–	protection from cytopathic effects induced by Zika virus (Zika virus): protects from cytopathic effects; pEC50 (Zika virus; Zika virus, 120 h, 0.02 MOI, five days, read-out: Zika virus Inhibitory ability (EC50)): 6.32; protection from cytopathic effects induced by dengue virus (dengue virus): protects from cytopathic effects; pEC50 (dengue virus; Dengue virus, Vero C1008, 120 h, 0.01 MOI, five days, read-out: Dengue virus Inhibitory ability (EC50)): 7.10
COc1cc2cc3c(c(-c4ccc(N(C)C5Cc6ccccc6C5)nc4)c2cc1OC)C(=O)OC3 [Example 194, 9-(6-((2,3-dihydro-1H-indan-2-yl)(methyl)amino)pyridin-3-yl)-6,7-dimethoxynaphtho[2,3-c]furan-1(3H)-one]	33.63	47100 µM	> 50 µM	48785	0.965 µM	5.83	–	–	–	–	–	–
CCCCN(CCCC)c1ncc(-c2c3c(cc4cc(OC)c(OC)cc24)COC3=O)cn1 [Example 73, 9-(2-(dibutylamino)pyrimidin-5-yl)-6,7-dimethoxynaphtho[2,3-c]furan-1(3H)-one]	6.53	–	> 50 µM	–	–	5.12	20.4%	74.1 pg/mL	5.50	74.7%	86.3 pg/mL	number of eosinophils in BALF ([4]; 10 mg/kg oral, ten days): significantly reduced; BALF IL-4 Secretion inhibitory ability % [4, 10]: (51.3%); BALF IL-5 Secretion inhibitory ability % [4, 10]: (33.7%); BALF IgE Secretion inhibitory ability % [4, 10]: (24.3%); BALF IL-4 pg/ml [4, 11]: 64.9 ± 35.025 pg/mL; BALF IL-5 pg/ml [4, 11]: 20.7 ± 13.46 pg/mL; BALF IgE [4, 11]: 10.5 ± 3.282 ng/mL
NC(=O)c1ncn([C@@H]2O[C@H](CO)[C@@H](O)[C@H]2O)n1 [Ribavirin]	–	1270 µM	–	–	64.8 µM	–	–	–	–	–	–	–
COc1cc2cc3c(c(-c4cnc(N5CCCC(C)C5)nc4)c2cc1OC)C(=O)OC3 (centres unmarked) [Example 59, 6,7-dimethoxy-9-(2-(3-methylpiperidin-1-yl)pyrimidin-5-yl)naphtho[2,3-c]furan-1(3H)-one]	20.79	–	> 50 µM	–	–	5.62	44.3%	51.9 pg/mL	5.63	79%	71.6 pg/mL	–
COc1cc2cc3c(c(-c4cnc(N(C)C5CCCC5)nc4)c2cc1OC)C(=O)OC3.Cl [Example 84, 9-(2-(cyclopentyl(methyl)amino)pyrimidin-5-yl)-6,7-dimethoxynaphtho[2,3-c]furan-1(3H)-one hydrochloride]	237.53	–	> 50 µM	–	–	–	–	11.2 pg/mL	–	–	1.1 pg/mL	inhibition at 1 µM ([5]; Mus musculus): 88%; pIC50 (SARS-COV-2; [8]): 6.68; IC50 ([6]; RBL-2H3, read-out: IL-4 secretion inhibition IC50 (μM)): 5.23 µM; inhibition at 1 µM ([7]; Mus musculus): 99.7%
COc1cc2cc3c(c(-c4cnc(N5CCSCC5)nc4)c2cc1OC)C(=O)OC3 [Example 63, 6,7-dimethoxy-9-(2-thiomorpholinopyrimidin-5-yl)naphtho[2,3-c]furan-1(3H)-one]	23.56	–	> 50 µM	–	–	5.67	81.6%	17.2 pg/mL	5.37	99.6%	1.3 pg/mL	–
CCN(CC)CCCC(C)Nc1ccnc2cc(Cl)ccc12 (centres unmarked) [Chloroquine]	–	–	–	–	21.8 µM	–	–	–	–	–	–	CC50 (in vitro [1]): 104 µM
